Source: patent publication US12667572B2, “Tricyclic compounds useful in the treatment of cancer, autoimmune and inflammatory disorders” (SCHRÖDINGER, INC., priority 2021, dated 2026)

biological target: T1, full-length MALT1 protein His-MALT1(1-824) (Homo sapiens, UniProt Q9UDY8); assay: MALT1 protease assay, Assay 2 (1 nM MALT1, Ac-LRSR-AMC substrate); format: biochemical; details: 1 nM MALT1, 50 μM Ac-LRSR-AMC, 2 h pre-incubation, 8 hr incubation at RT
T1 construct: full-length MALT1 protein His-MALT1(1-824); His (N); made in house; host or cells: baculovirus-infected insect cells
T1 sequence (Q9UDY8 1-824): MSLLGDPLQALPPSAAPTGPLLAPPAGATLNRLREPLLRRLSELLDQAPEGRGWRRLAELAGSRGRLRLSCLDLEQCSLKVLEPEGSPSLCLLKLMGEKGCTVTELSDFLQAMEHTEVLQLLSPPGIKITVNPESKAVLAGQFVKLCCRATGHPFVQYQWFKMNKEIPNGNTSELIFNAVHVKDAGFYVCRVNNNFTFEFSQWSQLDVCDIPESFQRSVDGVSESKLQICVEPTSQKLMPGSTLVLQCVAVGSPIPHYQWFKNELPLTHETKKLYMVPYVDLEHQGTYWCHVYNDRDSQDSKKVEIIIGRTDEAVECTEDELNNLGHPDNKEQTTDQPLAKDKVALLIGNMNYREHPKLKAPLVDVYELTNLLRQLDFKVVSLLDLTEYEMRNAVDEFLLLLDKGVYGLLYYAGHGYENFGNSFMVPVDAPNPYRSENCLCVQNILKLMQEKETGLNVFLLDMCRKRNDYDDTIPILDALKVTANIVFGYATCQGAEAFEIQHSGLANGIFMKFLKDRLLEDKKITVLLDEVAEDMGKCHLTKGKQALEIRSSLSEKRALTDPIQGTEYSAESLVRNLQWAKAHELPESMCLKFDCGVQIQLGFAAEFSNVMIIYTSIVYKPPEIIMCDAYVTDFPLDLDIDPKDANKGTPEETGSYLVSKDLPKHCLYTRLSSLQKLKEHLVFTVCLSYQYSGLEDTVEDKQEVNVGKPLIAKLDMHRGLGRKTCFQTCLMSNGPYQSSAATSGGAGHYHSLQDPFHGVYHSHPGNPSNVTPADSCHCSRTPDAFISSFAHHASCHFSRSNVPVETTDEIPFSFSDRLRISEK
In short: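 Full-length His-MALT1(1-824) from baculovirus-infected insect cells, pre-incubated with compound 2 h at RT (0.1% DMSO). Then 50 μM Ac-LRSR-AMC added. Buffer was Tris pH 7.5 with 600 mM sodium citrate, DTT, EDTA and BSA. Fluorescence (ex 355/em 460 nm) was read after 8 h at RT and normalized to high/low controls. IC50 from non-linear regression.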

Compared with `CC1(C)C[C@@H](C(=O)Nc2cnc(-n3nccn3)c(C(F)(F)F)c2)c2cnc3cc(Cl)nn3c21` (single isomer, unassigned) [Example 45, N-(6-(2H-1,2,3-triazol-2-yl)-5˜(trifluoromethyl)pyridin-3-yl)-2-chloro-8,8-dimethyl-7,8-dihydro-6H-cyclopenta[e]pyrazolo[1,5-a]pyrimidine-6-carboxamide], `C[C@]1(C(F)(F)F)C[C@@H](C(=O)Nc2cnc(-n3nccn3)c(C(F)(F)F)c2)c2cnc3cc(Cl)nn3c21` (single isomer, unassigned) [Example 55, N-(6-(2H-1,2,3-triazol-2-yl)-5˜(trifluoromethyl)pyridin-3-yl)-2-chloro-8-methyl-8-(trifluoromethyl)-7,8-dihydro-6H-cyclopenta[e]pyrazolo[1,5-a]pyrimidine-6-carboxamide] is lower in IC50: ≥ 1000 nM for the first, 10 to 100 nM for the second.

First: CC1(C)C[C@@H](C(=O)Nc2cc(C(F)F)c(-c3ncco3)c(=O)[nH]2)c2cnc3cc(Cl)nn3c21 (single isomer, unassigned) [Example 57, 2-chloro-N-(4-(difluoromethyl)-5˜(oxazol-2-yl)-6-oxo-1,6-dihydropyridin-2-yl)-8,8-dimethyl-7,8-dihydro-6H-cyclopenta[e]pyrazolo[1,5-a]pyrimidine-6-carboxamide]
Second: CC1(C)CC(C(=O)Nc2cc(C(F)F)c(-c3cc[nH]n3)c(=O)[nH]2)c2cnc3cc(Cl)nn3c21 (stereo not drawn) [Example 43, 2-chloro-N-(4-(difluoromethyl)-6-oxo-5˜(1H-pyrazol-3-yl)-1,6-dihydropyridin-2-yl)-8,8-dimethyl-7,8-dihydro-6H-cyclopenta[e]pyrazolo[1,5a]pyrimidine-6-carboxamide]
The IC50 of the first is higher: 100 to 1000 nM for the first, 10 to 100 nM for the second. The second is the more potent here.

First: CC1(C)C[C@@H](C(=O)Nc2cnc(OC(F)F)c(C#N)c2)c2cnn3cc(C(F)F)nc3c21 (single isomer, unassigned) [Example 198, N-(5-cyano-6-(difluoromethoxy)pyridin-3-yl)-2-(difluoromethyl)-9,9-dimethyl-8,9-dihydro-7H-cyclopenta[d]imidazo[1,2-b]pyridazine-7-carboxamide]
Second: CC1(C)CC(C(=O)Nc2cnc(-n3nccn3)c(C#N)c2)c2cnn3cc(C(F)F)nc3c21 (single isomer, unassigned) [Example 197, N-(5-cyano-6-(2H-1,2,3-triazol-2-yl)pyridin-3-yl)-2-(difluoromethyl)-9,9-dimethyl-8,9-dihydro-7H-cyclopenta[d]imidazo[1,2-b]pyridazine-7-carboxamide]
The IC50 of the first is higher: ≥ 1000 nM for the first, 10 to 100 nM for the second.

First: CC1(C)CC(C(=O)Nc2cnc(C(=O)NC3CC3)c(C(F)(F)F)c2)c2cnc3cc(Cl)nn3c21 (stereo not drawn) [Example 112, 2-chloro-N-(6-(cyclopropylcarbamoyl)-5˜(trifluoromethyl)pyridin-3-yl)-8,8-dimethyl-7,8-dihydro-6H-cyclopenta[e]pyrazolo[1,5-a]pyrimidine-6-carboxamide]
Second: CNC(=O)c1ncc(NC(=O)C2CC(C)(C)c3c2cnc2cc(Cl)nn32)cc1C(F)(F)F (single isomer, unassigned) [Example 155, 2-chloro-8,8-dimethyl-N-(6-(methylcarbamoyl)-5-(trifluoromethyl)pyridin-3-yl)-7,8-dihydro-6H-cyclopenta[e]pyrazolo[1,5-a]pyrimidine-6-carboxamide]
The IC50 of the first is higher: 100 to 1000 nM for the first, 10 to 100 nM for the second. The second is the more potent here.

`CC1(C)CC(C(=O)Nc2cnc(N=S(C)(C)=O)c(Cl)c2)c2cnc3cc(F)nn3c21` (single isomer, unassigned) [Example 132, N-(5-chloro-6-((dimethyl(oxo)-λ^6-sulfaneylidene)amino)pyridin-3-yl)-2-fluoro-8,8-dimethyl-7,8-dihydro-6H-cyclopenta[e]pyrazolo[1,5-a]pyrimidine-6-carboxamide] and `Cn1nnnc1-c1ncc(NC(=O)[C@@H]2CC(C)(C)c3c2cnc2cc(Cl)nn32)cc1Cl` (single isomer, unassigned) [Example 144, 2-chloro-N-(5-chloro-6-(1-methyl-1H-tetrazol-5-yl)pyridin-3-yl)-8,8-dimethyl-7,8-dihydro-6H-cyclopenta[e]pyrazolo[1,5-a]pyrimidine-6-carboxamide] fall in the same range of IC50: 10 to 100 nM for the first, 10 to 100 nM for the second.

`CC1(C)CC(C(=O)Nc2cnc(-c3nnnn3C3COC3)c(Cl)c2)c2cnc3cc(Cl)nn3c21` (stereo not drawn) [Example 163, 2-chloro-N-(5-chloro-6-(1-(oxetan-3-yl)-1H-tetrazol-5-yl)pyridin-3-yl)-8,8-dimethyl-7,8-dihydro-6H-cyclopenta[e]pyrazolo[1,5-a]pyrimidine-6-carboxamide] and `CC1(C)CC(C(=O)Nc2cnc(-n3ncc(C#N)n3)c(Cl)c2)c2cnc3cc(Cl)nn3c21` (stereo not drawn) [Example 137, 2-chloro-N-(5-chloro-6-(4-cyano-2H-1,2,3-triazol-2-yl)pyridin-3-yl)-8,8-dimethyl-7,8-dihydro-6H-cyclopenta[e]pyrazolo[1,5-a]pyrimidine-6-carboxamide] cannot be ordered by IC50: 100 to 1000 nM for the first, ≥ 1000 nM for the second.

`C[C@]1(C(F)(F)F)C[C@@H](C(=O)Nc2cnc(-n3nccn3)c(C(F)F)c2)c2cnc3cc(Cl)nn3c21` (single isomer, unassigned) [Example 63, 2-chloro-N-(5-(difluoromethyl)-6-(2H-1,2,3-triazol-2-yl)pyridin-3-yl)-8-methyl-8-(trifluoromethyl)-7,8-dihydro-6H-cyclopenta[e]pyrazolo[1,5-a]pyrimidine-6-carboxamide] and `C[C@@]1(C(F)(F)F)C[C@@H](C(=O)Nc2cnc(-n3nccn3)c(C(F)(F)F)c2)c2cnc3cc(Cl)nn3c21` (single isomer, unassigned) [Example 53, N-(6-(2H-1,2,3-triazol-2-yl)-5˜(trifluoromethyl)pyridin-3-yl)-2-chloro-8-methyl-8-(trifluoromethyl)-7,8-dihydro-6H-cyclopenta[e]pyrazolo[1,5-a]pyrimidine-6-carboxamide] fall in the same range of IC50: 100 to 1000 nM for the first, 100 to 1000 nM for the second.

Compared with `C[C@@]1(C(F)(F)F)C[C@@H](C(=O)Nc2cnc(-n3nccn3)c(Cl)c2)c2cnc3cc(F)nn3c21` (single isomer, unassigned) [Example 185], `C[C@H](O)c1cnn(-c2ncc(NC(=O)[C@@H]3CC(C)(C)c4c3cnc3cc(Cl)nn43)cc2Cl)n1` (single isomer, unassigned) [Example 50, 2-chloro-N-(5-chloro-6-(4-(1-hydroxyethyl)-2H-1,2,3-triazol-2-yl)pyridin-3-yl)-8,8-dimethyl-7,8-dihydro-6H-cyclopenta[e]pyrazolo[1,5-a]pyrimidine-6-carboxamide] is higher in IC50: < 10 nM for the first, ≥ 1000 nM for the second. The first is the more potent here.

`CNC(=O)c1ncc(NC(=O)[C@@H]2CC(C)(C)c3c2cnc2cc(Cl)nn32)cc1C(F)(F)F` (single isomer, unassigned) [Example 154, 2-chloro-8,8-dimethyl-N-(6-(methylcarbamoyl)-5-(trifluoromethyl)pyridin-3-yl)-7,8-dihydro-6H-cyclopenta[e]pyrazolo[1,5-a]pyrimidine-6-carboxamide] and `CC1(C)CC(C(=O)Nc2cnc(C(=O)N3CC(F)(F)C3)c(C(F)(F)F)c2)c2cnc3cc(Cl)nn3c21` (stereo not drawn) [Example 164, 2-chloro-N-(6-(3,3-difluoroazetidine-1-carbonyl)-5˜(trifluoromethyl)pyridin-3-yl)-8,8-dimethyl-7,8-dihydro-6H-cyclopenta[e]pyrazolo[1,5-a]pyrimidine-6-carboxamide] cannot be ordered by IC50: ≥ 1000 nM for the first, 100 to 1000 nM for the second.
